± gives the expanded uncertainty stated by the source.
Conditions: Liquid; for mass density: 298.15 K, 101.33 kPa

mass density [kg/m3] | vapor or sublimation pressure (375.52 K) [kPa] | vapor or sublimation pressure (353.2 K) [kPa] | vapor or sublimation pressure (353.85 K) [kPa] | vapor or sublimation pressure (322.4 K) [kPa] | SMILES
1027.85 ± 0.23 | 101.3 ± 4.1 | – | – | – | C1COCCO1 [1,4-dioxane]
873.55 ± 0.22 | – | 101.3 ± 4.1 | – | – | c1ccccc1 [benzene]
773.65 ± 0.32 | – | – | 101.3 ± 4.1 | – | C1CCCCC1 [cyclohexane]
739.74 ± 0.79 | – | – | – | 101.3 ± 4.1 | C1CCCC1 [cyclopentane]
